Tested on: ovariectomized (OVX) female Sprague Dawley rats
Assay: Osteoporosis Test Procedure (ovariectomized rat, femur density)
Assay type: in vivo
Conditions: orally administered in 20% hydroxypropyl cyclodextrin, daily for 35 days, compared to intact, vehicle treated controls
Excerpt: Seventy-five day old female Sprague Dawley rats (weight range of 200 to 225 g) are obtained from Charles River Laboratories (Portage, Mich.). The animals are either bilaterally ovariectomized (OVX) or exposed to a Sham surgical procedure at Charles River Laboratories, and then shipped after one week. Upon arrival, they are housed in metal hanging cages in groups of 3 or 4 per cage and have ad libitum access to food (calcium content approximately 0.5%) and water for one week. Room temperature is maintained at 22.2°±1.70° C. with a minimum relative humidity of 40%. The photoperiod in the room is 12 hours light and 12 hours dark.
After a one week acclimation period (therefore, two weeks post-OVX) daily dosing with test compound is initiated. […] The animals are then sacrificed by asphyxiation with CO2, the uterus is removed through a midline incision, and a wet uterine weight is determined.
Following the General Preparation Procedure, infra, the rats are treated daily for 35 days (6 rats per treatment group) and sacrificed by carbon dioxide asphyxiation on the 36th day. The 35 day time period is sufficient to allow maximal reduction in bone density, measured as described herein. […]
The right femurs are excised and digitilized x-rays generated and analyzed by an image analysis program (NIH image) at the distal metaphysis. […]

## C#C[C@]1(O)CC[C@H]2[C@@H]3CCc4cc(O)ccc4[C@H]3CC[C@@]21C [ethynyl estradiol, 17α-ethynyl estradiol]
  reduction in femur density caused by ovariectomy: prevented this loss

From US6391892B1, “Naphthyl pharmaceutical compounds” (Eli Lilly and Company, priority 1995, dated 2002)
